# From US20060069132A1, “Azolecarboxamide herbicides” (priority 2004, published 2006)
# Legend:
# large crabgrass = test: Test C pre-/postemergence herbicide test; assay type: in vivo, Digitaria sanguinalis
# Procedure, shortened: (§1)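 Visual injury scores run from 0 (no effect) to 100 (complete control), assessed relative to untreated controls 12 to 14 days after treatment in the greenhouse. Chemicals were formulated in a non-phytotoxic solvent mixture with surfactant and applied to soil after planting or to emerged plants at the 1- to 4-leaf stage.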
# johnsongrass = test: Test C pre-/postemergence herbicide test; assay type: in vivo, Sorghum halepense
# Procedure, shortened: as §1
# corn = test: Test C pre-/postemergence herbicide test; assay type: in vivo, Zea mays
# Procedure, shortened: as §1
# rice = test: Test C flooded paddy test; assay type: in vivo, Oryza sativa
# Procedure, shortened: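 Plants were grown to the 1- to 4-leaf stage (2–18 cm) and then treated postemergence, or grown to the 2-leaf stage for the flooded paddy test. They were held in a greenhouse for 12 to 14 days and then scored by eye against controls, where 0 is no effect and 100 is complete control.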
# woolly cupgrass = test: Test C pre-/postemergence herbicide test; assay type: in vivo, Eriochloa villosa
# Procedure, shortened: as §1
# lambsquarters = test: Test C pre-/postemergence herbicide test; assay type: in vivo, Chenopodium album
# Procedure, shortened: as §1
# ducksalad = test: Test C flooded paddy test; assay type: in vivo, Heteranthera limosa
# kochia = test: Test C pre-/postemergence herbicide test; assay type: in vivo, Kochia scoparia
# Procedure, shortened: as §1
# [1] = 62 g ai/ha, preemergence, scale 0 to 100
# [2] = 250 g ai/ha, scale 0-100, preemergence
# [3] = 500 g ai/ha, scale 0 to 100 (0 no effect, 100 complete control), visual, 12 to 14 days, preemergence
# [4] = 125 g ai/ha, scale 0 to 100 (0 no effect, 100 complete control)
# [5] = 250 g ai/ha, scale of 0 to 100, 0 is no effect, 100 is complete control
# [6] = 500 g ai/ha, visual rating after 12 to 14 days, scale 0 to 100 (0 no effect, 100 complete control)
smiles,measurement,setting,value
"CCNC(=O)c1ccc(F)c(NC(=O)C2CN(C(C)(C)C)N=C2CC)c1 (centres unmarked) [Compound 336, 1-(1,1-dimethylethyl)-3-ethyl-N-[5-[(ethylamino)carbonyl]-2-fluorophenyl]-4,5-dihydro-1H-pyrazole-4-carboxamide]",pest or weed control at 62 g/ha,"large crabgrass; Digitaria sanguinalis, pre-emergence, 312 h, 62 g ai/ha, preemergence, scale 0 to 100, read-out: Plant response rating, Crabgrass, Large",100%
same,pest or weed control at 125 g/ha,"large crabgrass; Digitaria sanguinalis, pre-emergence, 312 h, 125 g ai/ha, scale 0 (no effect) to 100 (complete control), visual, 12 to 14 days, read-out: Plant response rating, Crabgrass, Large",100%
same,pest or weed control at 250 g/ha,"large crabgrass; Digitaria sanguinalis, pre-emergence, 312 h, 250 g ai/ha, scale 0-100, read-out: Plant response rating, Crabgrass, Large",100%
same,pest or weed control at 500 g/ha,"large crabgrass; Digitaria sanguinalis, pre-emergence, 312 h, 500 g ai/ha, scale 0 to 100 (0 no effect, 100 complete control), visual, 12 to 14 days, read-out: Plant response rating, Crabgrass, Large",100%
same,pest or weed control at 62 g/ha,"johnsongrass; Sorghum halepense, pre-emergence, 62 g ai/ha, preemergence, scale 0 to 100, read-out: Plant response rating, Johnsongrass",80%
same,pest or weed control at 125 g/ha,"johnsongrass; Sorghum halepense, pre-emergence, 125 g ai/ha, scale 0 (no effect) to 100 (complete control), visual, 12 to 14 days, read-out: Plant response rating, Johnsongrass",95%
same,pest or weed control at 250 g/ha,"johnsongrass; Sorghum halepense, pre-emergence, 250 g ai/ha, scale 0-100, read-out: Plant response rating, Johnsongrass",100%
same,pest or weed control at 500 g/ha,"johnsongrass; Sorghum halepense, pre-emergence, 500 g ai/ha, scale 0 to 100 (0 no effect, 100 complete control), visual, 12 to 14 days, read-out: Plant response rating, Johnsongrass",100%
same,"Corn plant response rating (crop injury, 0 = no effect, 100 = complete kill) at 62 g/ha","corn; Zea mays, pre-emergence, 312 h, 62 g ai/ha, preemergence, scale 0 to 100",10%
same,"Corn plant response rating (crop injury, 0 = no effect, 100 = complete kill) at 125 g/ha","corn; Zea mays, pre-emergence, 312 h, 125 g ai/ha, scale 0 (no effect) to 100 (complete control), visual, 12 to 14 days",35%
same,"Corn plant response rating (crop injury, 0 = no effect, 100 = complete kill) at 250 g/ha","corn; Zea mays, pre-emergence, 312 h, 250 g ai/ha, scale 0-100",85%
same,"Corn plant response rating (crop injury, 0 = no effect, 100 = complete kill) at 500 g/ha","corn; Zea mays, pre-emergence, 312 h, 500 g ai/ha, scale 0 to 100 (0 no effect, 100 complete control), visual, 12 to 14 days",85%
same,plant injury at 62 g/ha,"rice; Oryza sativa, 62 g ai/ha, scale 0 to 100, read-out: Rice plant response rating",10%
same,plant injury at 125 g/ha,"rice; Oryza sativa, 125 g ai/ha, scale 0 to 100 (0 no effect, 100 complete control), read-out: Rice plant response rating",45%
same,plant injury at 250 g/ha,"rice; Oryza sativa, 250 g ai/ha, scale of 0 to 100, 0 is no effect, 100 is complete control, read-out: Rice plant response rating",75%
same,plant injury at 500 g/ha,"rice; Oryza sativa, 500 g ai/ha, visual rating after 12 to 14 days, scale 0 to 100 (0 no effect, 100 complete control), read-out: Plant response rating, Rice",75%
same,pest or weed control at 62 g/ha,"woolly cupgrass; Eriochloa villosa, pre-emergence, 312 h, 62 g ai/ha, preemergence, scale 0 to 100, read-out: Plant response rating, Cupgrass, Woolly",5%
same,pest or weed control at 125 g/ha,"woolly cupgrass; Eriochloa villosa, pre-emergence, 312 h, 125 g ai/ha, scale 0 (no effect) to 100 (complete control), visual, 12 to 14 days, read-out: Plant response rating, Cupgrass, Woolly",10%
same,pest or weed control at 250 g/ha,"woolly cupgrass; Eriochloa villosa, pre-emergence, 312 h, 250 g ai/ha, scale 0-100, read-out: Plant response rating, Cupgrass, Woolly",60%
same,pest or weed control at 500 g/ha,"woolly cupgrass; Eriochloa villosa, pre-emergence, 312 h, 500 g ai/ha, scale 0 to 100 (0 no effect, 100 complete control), visual, 12 to 14 days, read-out: Plant response rating, Cupgrass, Woolly",85%
same,pest or weed control at 62 g/ha,"lambsquarters; Chenopodium album, pre-emergence, 62 g ai/ha, preemergence, scale 0 to 100, read-out: Plant response rating, Lambsquarters",100%
same,pest or weed control at 125 g/ha,"lambsquarters; Chenopodium album, pre-emergence, 125 g ai/ha, scale 0 (no effect) to 100 (complete control), visual, 12 to 14 days, read-out: Plant response rating, Lambsquarters",100%
same,pest or weed control at 250 g/ha,"lambsquarters; Chenopodium album, pre-emergence, 250 g ai/ha, scale 0-100, read-out: Plant response rating, Lambsquarters",100%
same,pest or weed control at 500 g/ha,"lambsquarters; Chenopodium album, pre-emergence, 500 g ai/ha, scale 0 to 100 (0 no effect, 100 complete control), visual, 12 to 14 days, read-out: Plant response rating, Lambsquarters",100%
same,pest or weed control at 62 g/ha,"ducksalad; Heteranthera limosa, 62 g ai/ha, scale 0 to 100, read-out: Ducksalad plant response rating",45%
same,pest or weed control at 125 g/ha,"ducksalad; Heteranthera limosa, 125 g ai/ha, scale 0 to 100 (0 no effect, 100 complete control), read-out: Ducksalad plant response rating",55%
same,pest or weed control at 250 g/ha,"ducksalad; Heteranthera limosa, 250 g ai/ha, scale of 0 to 100, 0 is no effect, 100 is complete control, read-out: Ducksalad plant response rating",75%
same,pest or weed control at 500 g/ha,"ducksalad; Heteranthera limosa, 500 g ai/ha, visual rating after 12 to 14 days, scale 0 to 100 (0 no effect, 100 complete control), read-out: Plant response rating, Ducksalad",90%
same,pest or weed control at 62 g/ha,"kochia; Bassia scoparia, pre-emergence, 62 g ai/ha, preemergence, scale 0 to 100, read-out: Plant response rating, Kochia",5%
same,pest or weed control at 125 g/ha,"kochia; Bassia scoparia, pre-emergence, 125 g ai/ha, scale 0 (no effect) to 100 (complete control), visual, 12 to 14 days, read-out: Plant response rating, Kochia",70%
same,pest or weed control at 250 g/ha,"kochia; Bassia scoparia, pre-emergence, 250 g ai/ha, scale 0-100, read-out: Plant response rating, Kochia",100%
same,pest or weed control at 500 g/ha,"kochia; Bassia scoparia, pre-emergence, 500 g ai/ha, scale 0 to 100 (0 no effect, 100 complete control), visual, 12 to 14 days, read-out: Plant response rating, Kochia",100%
CCc1nn(C(C)(C)CC)nc1C(=O)Nc1cccc(C(=O)N(C)C)c1 [Compound 372],"Plant response rating, Crabgrass, Large",large crabgrass; [1],70
same,"Plant response rating (0 = no effect, 100 = complete control), Crabgrass, Large","large crabgrass; 125 g ai/ha, preemergence",85
same,"Plant response rating, Crabgrass, Large",large crabgrass; [2],95
same,"Plant response rating, Crabgrass, Large",large crabgrass; [3],95
same,"Plant response rating, Johnsongrass",johnsongrass; [1],80
same,"Plant response rating (0 = no effect, 100 = complete control), Johnsongrass","johnsongrass; 125 g ai/ha, preemergence",80
same,"Plant response rating, Johnsongrass",johnsongrass; [2],90
same,"Plant response rating, Johnsongrass",johnsongrass; [3],90
same,"Plant response rating, Corn",corn; [1],60
same,"Plant response rating (0 = no effect, 100 = complete control), Corn","corn; 125 g ai/ha, preemergence",60
same,"Plant response rating, Corn",corn; [2],65
same,"Plant response rating, Corn",corn; [3],65
same,Rice plant response rating,"rice; 62 g ai/ha, scale 0 to 100",80
same,Rice plant response rating,rice; [4],85
same,Rice plant response rating,rice; [5],90
same,"Plant response rating, Rice",rice; [6],90
same,"Plant response rating, Cupgrass, Woolly",woolly cupgrass; [1],50
same,"Plant response rating (0 = no effect, 100 = complete control), Cupgrass, Woolly","woolly cupgrass; 125 g ai/ha, preemergence",60
same,"Plant response rating, Cupgrass, Woolly",woolly cupgrass; [2],70
same,"Plant response rating, Cupgrass, Woolly",woolly cupgrass; [3],100
same,"Plant response rating, Lambsquarters",lambsquarters; [1],100
same,"Plant response rating (0 = no effect, 100 = complete control), Lambsquarters","lambsquarters; 125 g ai/ha, preemergence",100
same,"Plant response rating, Lambsquarters",lambsquarters; [2],100
same,"Plant response rating, Lambsquarters",lambsquarters; [3],100
same,Ducksalad plant response rating,"ducksalad; 62 g ai/ha, scale 0 to 100",65
same,Ducksalad plant response rating,ducksalad; [4],85
same,Ducksalad plant response rating,ducksalad; [5],85
same,"Plant response rating, Ducksalad",ducksalad; [6],85
same,"Plant response rating, Kochia",kochia; [1],100
same,"Plant response rating (0 = no effect, 100 = complete control), Kochia","kochia; 125 g ai/ha, preemergence",100
same,"Plant response rating, Kochia",kochia; [2],100
same,"Plant response rating, Kochia",kochia; [3],100
CCNC(=O)c1ccc(F)c(N(C(C)=O)C(=O)c2cc(C(C)(C)C)nn2CC)c1 [Compound 399],"Plant response rating, Crabgrass, Large",large crabgrass; [1],100
same,"Plant response rating (0 = no effect, 100 = complete control), Crabgrass, Large","large crabgrass; 125 g ai/ha, preemergence",100
same,"Plant response rating, Crabgrass, Large",large crabgrass; [2],100
same,"Plant response rating, Crabgrass, Large",large crabgrass; [3],100
same,"Plant response rating, Johnsongrass",johnsongrass; [1],95
same,"Plant response rating (0 = no effect, 100 = complete control), Johnsongrass","johnsongrass; 125 g ai/ha, preemergence",100
same,"Plant response rating, Johnsongrass",johnsongrass; [2],100
same,"Plant response rating, Johnsongrass",johnsongrass; [3],100
same,"Plant response rating, Corn",corn; [1],60
same,"Plant response rating (0 = no effect, 100 = complete control), Corn","corn; 125 g ai/ha, preemergence",70
same,"Plant response rating, Corn",corn; [2],80
same,"Plant response rating, Corn",corn; [3],95
same,Rice plant response rating,"rice; 62 g ai/ha, scale 0 to 100",65
same,Rice plant response rating,rice; [4],65
same,Rice plant response rating,rice; [5],75
same,"Plant response rating, Rice",rice; [6],75
same,"Plant response rating, Cupgrass, Woolly",woolly cupgrass; [1],45
same,"Plant response rating (0 = no effect, 100 = complete control), Cupgrass, Woolly","woolly cupgrass; 125 g ai/ha, preemergence",65
same,"Plant response rating, Cupgrass, Woolly",woolly cupgrass; [2],80
same,"Plant response rating, Cupgrass, Woolly",woolly cupgrass; [3],95
same,"Plant response rating, Lambsquarters",lambsquarters; [1],100
same,"Plant response rating (0 = no effect, 100 = complete control), Lambsquarters","lambsquarters; 125 g ai/ha, preemergence",100
same,"Plant response rating, Lambsquarters",lambsquarters; [2],100
same,"Plant response rating, Lambsquarters",lambsquarters; [3],100
same,Ducksalad plant response rating,"ducksalad; 62 g ai/ha, scale 0 to 100",75
same,Ducksalad plant response rating,ducksalad; [4],75
same,Ducksalad plant response rating,ducksalad; [5],85
same,"Plant response rating, Ducksalad",ducksalad; [6],85
same,"Plant response rating (0 = no effect, 100 = complete control), Kochia","kochia; 125 g ai/ha, preemergence",80
same,"Plant response rating, Kochia",kochia; [2],100
same,"Plant response rating, Kochia",kochia; [3],100
